Experimental findings from patent publication US7238685B2, “Benzo-fused heterocycles as endothelin antagonists” (Actelion Pharmaceuticals Ltd., priority 2001, dated 2007) are described below.

Like-named read-outs stand apart in the source and are kept apart here.

The target in assay [1] is T1, rat aortic rings (ETA receptors) (Rattus norvegicus, UniProt P26684).
T1 construct: from tissue; host or cells: thoracic aorta rings of adult Wistar rats, endothelium removed
T1 sequence (P26684 21-426): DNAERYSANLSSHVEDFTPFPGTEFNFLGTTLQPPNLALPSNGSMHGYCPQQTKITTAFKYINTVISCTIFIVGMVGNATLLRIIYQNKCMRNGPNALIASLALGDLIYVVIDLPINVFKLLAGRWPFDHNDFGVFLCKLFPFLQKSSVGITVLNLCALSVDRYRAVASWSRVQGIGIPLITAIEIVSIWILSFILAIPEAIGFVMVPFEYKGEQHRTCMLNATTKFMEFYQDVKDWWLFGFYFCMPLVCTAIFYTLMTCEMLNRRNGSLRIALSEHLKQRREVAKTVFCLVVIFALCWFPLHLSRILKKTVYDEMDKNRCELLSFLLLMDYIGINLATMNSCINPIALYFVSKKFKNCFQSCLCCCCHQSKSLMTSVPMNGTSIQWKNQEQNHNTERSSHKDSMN
Briefly: Inhibition of endothelin-1-induced contractions on isolated rat aortic rings.

Assay [2] concerns the target T2, rat tracheal rings (ETB receptors) (Rattus norvegicus, UniProt P21451).
T2 construct: from tissue; host or cells: tracheal rings of adult Wistar rats, epithelium removed
T2 sequence (P21451 27-442): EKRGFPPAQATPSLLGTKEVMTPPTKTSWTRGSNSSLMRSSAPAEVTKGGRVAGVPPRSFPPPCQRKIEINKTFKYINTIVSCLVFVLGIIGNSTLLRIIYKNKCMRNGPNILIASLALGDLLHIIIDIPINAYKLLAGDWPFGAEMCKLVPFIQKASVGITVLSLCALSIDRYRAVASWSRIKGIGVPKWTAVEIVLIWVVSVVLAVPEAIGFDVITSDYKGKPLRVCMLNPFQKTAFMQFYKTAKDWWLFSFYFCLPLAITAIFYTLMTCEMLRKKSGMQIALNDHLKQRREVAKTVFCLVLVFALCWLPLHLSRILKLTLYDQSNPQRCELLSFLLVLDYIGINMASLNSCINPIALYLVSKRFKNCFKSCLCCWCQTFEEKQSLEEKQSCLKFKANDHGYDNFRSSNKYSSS
Briefly: Inhibition of sarafotoxin S6c-induced contractions on isolated rat tracheal rings. As for the experimental part:
2) Inhibition of Endothelin-induced Contractions on Isolated Rat Aortic Rings (ETA Receptors) and Rat Tracheal Rings (ETB Receptors):
The functional inhibitory potency of the endothelin antagonists was assessed by their inhibition of the contraction induced by endothelin-1 on rat aortic rings (ETA receptors) and of the contraction induced by sarafotoxin S6c on rat tracheal rings (ETB receptors). Adult Wistar rats were anesthetized and exsanguinated. The thoracic aorta or trachea were excised, dissected and cut in 3–5 mm rings. The endothelium/epithelium was removed by gentle rubbing of the intimal surface. Each ring was suspended in a 10 ml isolated organ bath filled with Krebs-Henseleit solution (in mM; NaCl 115, KCl 4.7, MgSO4 1.2, KH2PO4 1.5, NaHCO3 25, CaCl2 2.5, glucose 10) kept at 37° C. and gassed with 95% O2 and 5% CO2. The rings were connected to force transducers and isometric tension was recorded (EMKA Technologies SA, Paris, France). The rings were stretched to a resting tension of 3 g (aorta) or 2 g (trachea). […] The functional inhibitory potency of the test compound was assessed by calculating the concentration ratio, i.e. the shift to the right of the EC50 induced by different concentrations of test compound. EC50 is the concentration of endothelin needed to get a half-maximal contraction, pA2 is the negative logarithm of the antagonist concentration which induces a two-fold shift in the EC50 value.

For assay [3], the target named is T3, human recombinant ETA receptors (Homo sapiens, UniProt P25101).
T3 construct: expressed in transfected cells; host or cells: CHO cells (microsomal membranes)
T3 sequence (P25101 21-427): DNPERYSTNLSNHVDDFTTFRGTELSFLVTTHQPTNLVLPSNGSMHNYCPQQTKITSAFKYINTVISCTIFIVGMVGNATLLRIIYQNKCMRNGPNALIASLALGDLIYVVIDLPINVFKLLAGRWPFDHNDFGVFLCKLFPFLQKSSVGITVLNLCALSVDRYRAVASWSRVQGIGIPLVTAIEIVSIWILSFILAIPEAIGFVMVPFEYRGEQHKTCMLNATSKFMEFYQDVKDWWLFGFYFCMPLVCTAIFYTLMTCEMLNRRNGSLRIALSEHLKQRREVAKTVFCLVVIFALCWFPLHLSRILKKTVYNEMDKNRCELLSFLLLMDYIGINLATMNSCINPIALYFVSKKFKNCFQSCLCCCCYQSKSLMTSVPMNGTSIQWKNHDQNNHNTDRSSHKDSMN
Description: Inhibition of endothelin binding to membranes from CHO cells carrying human ET receptors (ETA). To be noted: read-out: IC50 ETA.

The target of assay [4] is T4, human recombinant ETB receptors (Homo sapiens, UniProt P24530).
T4 construct: expressed in transfected cells; host or cells: CHO cells (microsomal membranes)
T4 sequence (P24530 27-442): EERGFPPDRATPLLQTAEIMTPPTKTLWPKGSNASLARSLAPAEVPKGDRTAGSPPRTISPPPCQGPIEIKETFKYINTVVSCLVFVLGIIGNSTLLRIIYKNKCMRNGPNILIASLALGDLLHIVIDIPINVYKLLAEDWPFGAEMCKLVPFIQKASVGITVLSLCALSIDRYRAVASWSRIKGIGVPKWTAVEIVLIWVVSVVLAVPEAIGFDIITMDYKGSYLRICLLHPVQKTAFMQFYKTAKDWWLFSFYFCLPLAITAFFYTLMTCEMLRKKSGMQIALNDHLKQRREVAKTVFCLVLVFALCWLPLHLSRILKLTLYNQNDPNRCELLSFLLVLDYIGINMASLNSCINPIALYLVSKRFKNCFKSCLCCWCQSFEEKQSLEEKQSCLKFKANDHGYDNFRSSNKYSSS
Briefly: Inhibition of endothelin binding to membranes from CHO cells carrying human ET receptors (ETB). The following applies: read-out: IC50 ETB.

Setting [5] is: read-out: pA2 (aortic rings) (converted).

Turning to `COc1cc(OC)nc(O[C@H](C(=O)O)[C@@]2(c3ccccc3)NCC(=O)N(Cc3c(F)cc(F)cc3F)c3ccccc32)n1` (racemic) [Example 48], the Kb in assay [1] (setting [5]) is 6.46 nM; in assay [2] it was 525 nM.

On to `COc1cc(CN2C(=O)CN[C@](c3ccccc3)([C@H](Oc3nc(C)cc(C)n3)C(=O)O)c3ccccc32)cc(OC)c1` (racemic) [Example 51, (±)-(S*)-[(5S*)-1-(3,5-Dimethoxy-benzyl)-2-oxo-5-phenyl-2,3,4,5-tetra-hydro-1H-benzo[e][1,4]diazepin-5-yl]-(4,6-dimethyl-pyrimidin-2-yloxy)-acetic acid], for which the 50% inhibitory concentration (IC50) (commonly the concentration that gives 50% inhibition) in assay [3] was 7 nM; in assay [4], 26 nM. Further, in assay [1] (setting [5]), the Kb is 40.7 nM.

`Cc1cc(C)nc(O[C@H](C(=O)O)[C@@]2(c3ccccc3)NCC(=O)N(Cc3c(F)cc(F)cc3F)c3ccccc32)n1` (racemic) [Example 107, (±)-(S*)-(4,6-dimethyl-pyrimidin-2-yloxy)-[(5S*)-2-oxo-5-phenyl-1-(2,4,6-trifluoro-benzyl)-2,3,4,5-tetrahydro-1H-benzo[e][1,4]diazepin-5-yl]-acetic acid]: the values for the IC50 in assay [3] and in assay [4] were 1 nM and 42 nM, respectively. The Kb was 6.61 nM in assay [1] and 661 nM in assay [2].

In the case of `Cc1cc(C)nc(O[C@H](C(=O)O)[C@@]2(c3ccccc3)NCC(=O)N(Cc3c(Cl)cccc3Cl)c3ccccc32)n1` (racemic) [Example 115], the figures for the IC50 in assay [3] and in assay [4] were 1 nM and 3 nM, respectively. Moreover, the Kb was 2.82 nM in assay [1] and 27.5 nM in assay [2].

Turning to `Cc1cc(C)nc(O[C@H](C(=O)O)[C@@]2(c3cccc(-c4ccccc4)c3)NCC(=O)N(Cc3c(F)cc(F)cc3F)c3ccccc32)n1` (racemic) [Example 211, (±)-(S*)-[(5S*)-5-biphenyl-3-yl-2-oxo-1-(2,4,6-trifluoro-benzyl)-2,3,4,5-tetrahydro-1H-benzo[e][1,4]di-azepin-5-yl]-(4,6-dimethyl-pyrimidin-2-yloxy)-acetic acid], the half-inhibitory concentration (IC50) in assay [3] was 6 nM; in assay [4], 62 nM. For the same compound, the Kb in assay [1] is 0.912 nM; in assay [2] it was 85.1 nM.
